# Source: patent US7635779B2, “Oxy substituted flavones as antihyperglycemic and antidyslipidemic agents” (Council of Scientific & Industrial Research, priority 2004, dated 2009)
# Legend:
# Swiss mice [1] = assay: Gross behaviour: sensory responses (reflexes, hot plate nociceptive response); type: in vivo, mouse; conditions: 100 mg/kg p.o.; for Nociceptive reaction time MEAN ± SE: hot plate 55° C.
# Experimental: • i). Reflexes: Pinna, corneal and righting reflexes were tested [Normal (control), sluggish or absent] • ii). Nociceptive Response: Reaction time to nociceptive response was observed by hot plate analgesia meter (Columbus Instruments,USA). The cut-off period for thermal nociception (55° C.) to mice was 15 sec. Results • i). Reflexes: Corneal, pinna and righting reflexes were intact in 34 and 49 treated mice. • ii).
# Swiss mice [2] = assay: Gross behaviour: motor responses (SMA, gait, posture); type: in vivo, mouse; set-up: key to SMA Score: scale 0-9; control group SMA = 4; conditions: for Effect on motor responses: 100 mg/kg; for SMA Score: 100 mg/kg p.o., control score 4
# Experimental: 34 and 49 (100 mg/kg, p.o.) was administered in forenoon.
# The gross behavioral parameters were observed as follows (based on Irwin protocol):
# • i). Spontaneous motor activity [SMA]: Scored on a scale of 0-9 in which SMA in control group was assigned score 4. • ii). Posture/Position: Normal upright posture (+: present or −: absent) • iii). Gait: The mouse is allowed to move on the edge of the cage for 1 min and straight movements without fall or staggering is considered as normal. The gait is recorded as normal or abnormal; if abnormal description is provided. • iv). Ataxia: Any in-coordination in movements occurring in absence of involuntary movements. (+: present or −: absent) • v). Tremor: Involuntary movements (jerking of entire body or limbs) due to alternating contraction of muscles. (+: present or −: absent) • vi). Convulsions: Alternate contraction (flexion) and extension [clonic], or sustained extension [tonic] of limbs resulting into loss of upright posture (+: present or −: absent). • vii). Straub's tail: A sustained (>30 sec) raising of tail (making an angle >60° with the body) (+: present or −: absent) • viii). Catalepsy: A condition in which body or limbs remain passively in any position in which they are placed. It is tested by the placing forepaws on a metallic rod placed at height of 6 cm and if forepaws are not withdrawn within 10 sec catalepsy is considered to be positive (+: present or −: absent). • ix). Abnormal (Bizarre) behaviour: Stereotypy, head shaking, head searching, upright walking, and circling (+: present or −: absent). Results
"Corneal, pinna and righting reflexes (Swiss mice [1])",Effect on nociceptive reaction time as compared to control (Swiss mice [1]),Sensory responses (Swiss mice [1]),Nociceptive reaction time MEAN ± SE (Swiss mice [1]; 30 min) [s],Nociceptive reaction time MEAN ± SE (Swiss mice [1]; 60 min) [s],Nociceptive reaction time MEAN ± SE (Swiss mice [1]; 90 min) [s],Nociceptive reaction time MEAN ± SE (Swiss mice [1]; 120 min) [s],Nociceptive reaction time MEAN ± SE (Swiss mice [1]; Pre-tt (0)) [s],Effect on motor responses (Swiss mice [2]),SMA Score (Swiss mice [2]; 0 min),SMA Score (Swiss mice [2]; 30 min),SMA Score (Swiss mice [2]; 60 min),SMA Score (Swiss mice [2]; 90 min),SMA Score (Swiss mice [2]; 120 min),SMA Score (Swiss mice [2]; 150 min),SMA Score (Swiss mice [2]; 180 min),SMILES
intact,no significant effect,not affected,4.66 ± 0.6,4.10 ± 0.2,3.66 ± 0.3,3.45 ± 0.1,4.61 ± 0.2,did not show any significant effect,4,4,4,4,4,4,4,"CC(C)NCC(O)COc1ccc2c(=O)cc(-c3cc(O)cc(O)c3)oc2c1 (centres unmarked) [Compound 49, 3′,5′-Dihydroxy-7-(2-hydroxy-3-iso-propylamino-propoxy)-flavone]"
intact,no significant effect,not affected,4.84 ± 0.3,4.30 ± 0.2,3.52 ± 0.1,3.08 ± 0.2,3.52 ± 0.2,did not show any significant effect,4,4,4,4,4,4,4,"CC(C)(C)NCC(O)COc1ccc2c(=O)cc(-c3cc(OCc4ccccc4)cc(OCc4ccccc4)c3)oc2c1 (centres unmarked) [Compound 34, 7-(3-tert-Butylamino-2-hydroxy-propoxy)-3′,5′-dibenzyloxy-flavone]"
